# Test results reported in PubChem BioAssay AID2060903 (Molecular Pharmacology Branch, DTP, NCI, 2025).
# Test system: 377384-186-R-J1-PDC complex spheroid viability
# Assay: Anticancer human tumor 377384-186-R-J1-PDC patient-derived pancreatic carcinoma cell line growth inhibition [RAS]
# Conditions: for IC50: curve of first compound; for viability, T/C: stronger effect = lower value
# Summary of the method: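 Multi-cell-type spheroids: tumor cells plus HUVEC endothelial cells and mesenchymal stem cells. RAS-pathway inhibitors were combined with targeted agents, each dosed in half-log steps down from clinical Cmax, or from 10 microM when Cmax was unknown.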
# 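Also: spheroids exposed to compounds for seven days before readout.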
smiles,measurement,setting,value
CC(Nc1ccc2c(c1)OCCn1cc(N3C(=O)OCC3C(F)F)nc1-2)C(N)=O (stereo unspecified) + CCn1c(-c2cccnc2C(C)OC)c2c3cc(ccc31)N1CCOC(CC(NC(=O)C(C(C)C)N(C)C(=O)C3(F)CCN(C(=O)C#CC(C)(C)N(C)C)CC3)C(=O)N3CCCC(N3)C(=O)OCC(C)(C)C2)C1,IC50,second compound 0.000949 µM,650 nM
same,IC50,second compound 0.003 µM,716 nM
same,IC50,second compound 0.00949 µM,453 nM
same,IC50,second compound 0.03 µM,510 nM
same,IC50,second compound 0.0949 µM,280 nM
same,IC50,second compound 0.3 µM,132 nM
same,"viability, T/C","second compound 0.000949 µM, first compound 0.0316 µM",86.7%
same,"viability, T/C","second compound 0.000949 µM, first compound 0.1 µM",68.8%
same,"viability, T/C","second compound 0.000949 µM, first compound 0.316 µM",56.5%
same,"viability, T/C","second compound 0.000949 µM, first compound 1 µM",48%
same,"viability, T/C","second compound 0.000949 µM, first compound 3.16 µM",34%
same,"viability, T/C","second compound 0.000949 µM, first compound 10 µM",26.5%
same,"viability, T/C","second compound 0.003 µM, first compound 0.0316 µM",94.1%
same,"viability, T/C","second compound 0.003 µM, first compound 0.1 µM",74.7%
same,"viability, T/C","second compound 0.003 µM, first compound 0.316 µM",57.7%
same,"viability, T/C","second compound 0.003 µM, first compound 1 µM",47.2%
same,"viability, T/C","second compound 0.003 µM, first compound 3.16 µM",35.6%
same,"viability, T/C","second compound 0.003 µM, first compound 10 µM",23.1%
same,"viability, T/C","second compound 0.00949 µM, first compound 0.0316 µM",92.5%
same,"viability, T/C","second compound 0.00949 µM, first compound 0.1 µM",70%
same,"viability, T/C","second compound 0.00949 µM, first compound 0.316 µM",53.3%
same,"viability, T/C","second compound 0.00949 µM, first compound 1 µM",39.6%
same,"viability, T/C","second compound 0.00949 µM, first compound 3.16 µM",39.2%
same,"viability, T/C","second compound 0.00949 µM, first compound 10 µM",26.7%
same,"viability, T/C","second compound 0.03 µM, first compound 0.0316 µM",87.2%
same,"viability, T/C","second compound 0.03 µM, first compound 0.1 µM",72.3%
same,"viability, T/C","second compound 0.03 µM, first compound 0.316 µM",55.3%
same,"viability, T/C","second compound 0.03 µM, first compound 1 µM",40.8%
same,"viability, T/C","second compound 0.03 µM, first compound 3.16 µM",36.6%
same,"viability, T/C","second compound 0.03 µM, first compound 10 µM",28.1%
same,"viability, T/C","second compound 0.0949 µM, first compound 0.0316 µM",72.9%
same,"viability, T/C","second compound 0.0949 µM, first compound 0.1 µM",57.2%
same,"viability, T/C","second compound 0.0949 µM, first compound 0.316 µM",49.2%
same,"viability, T/C","second compound 0.0949 µM, first compound 1 µM",38.4%
same,"viability, T/C","second compound 0.0949 µM, first compound 3.16 µM",37.5%
same,"viability, T/C","second compound 0.0949 µM, first compound 10 µM",24.9%
same,"viability, T/C","second compound 0.3 µM, first compound 0.0316 µM",70.3%
same,"viability, T/C","second compound 0.3 µM, first compound 0.1 µM",54.4%
same,"viability, T/C","second compound 0.3 µM, first compound 0.316 µM",35.8%
same,"viability, T/C","second compound 0.3 µM, first compound 1 µM",38%
same,"viability, T/C","second compound 0.3 µM, first compound 3.16 µM",30.1%
same,"viability, T/C","second compound 0.3 µM, first compound 10 µM",25%
CC(Nc1ccc2c(c1)OCCn1cc(N3C(=O)OCC3C(F)F)nc1-2)C(N)=O (stereo unspecified) + C=CC(=O)N1CCN(c2nc(OCC3CCCN3C)nc3c(F)c(-c4nc(N)cc(C)c4C(F)(F)F)c(Cl)cc23)C(C)C1,IC50,second compound 0.00316 µM,739 nM
same,IC50,second compound 0.01 µM,575 nM
same,IC50,second compound 0.0316 µM,443 nM
same,IC50,second compound 0.1 µM,775 nM
same,IC50,second compound 0.316 µM,255 nM
same,IC50,second compound 1 µM,647 nM
same,"viability, T/C","second compound 0.00316 µM, first compound 0.0316 µM",73.4%
same,"viability, T/C","second compound 0.00316 µM, first compound 0.1 µM",72.2%
same,"viability, T/C","second compound 0.00316 µM, first compound 0.316 µM",52.8%
same,"viability, T/C","second compound 0.00316 µM, first compound 1 µM",48.1%
same,"viability, T/C","second compound 0.00316 µM, first compound 3.16 µM",38.4%
same,"viability, T/C","second compound 0.00316 µM, first compound 10 µM",28.4%
same,"viability, T/C","second compound 0.01 µM, first compound 0.0316 µM",76.8%
same,"viability, T/C","second compound 0.01 µM, first compound 0.1 µM",63.5%
same,"viability, T/C","second compound 0.01 µM, first compound 0.316 µM",54.8%
same,"viability, T/C","second compound 0.01 µM, first compound 1 µM",46.6%
same,"viability, T/C","second compound 0.01 µM, first compound 3.16 µM",37.9%
same,"viability, T/C","second compound 0.01 µM, first compound 10 µM",32.8%
same,"viability, T/C","second compound 0.0316 µM, first compound 0.0316 µM",86.2%
same,"viability, T/C","second compound 0.0316 µM, first compound 0.1 µM",68.2%
same,"viability, T/C","second compound 0.0316 µM, first compound 0.316 µM",55.7%
same,"viability, T/C","second compound 0.0316 µM, first compound 1 µM",40.3%
same,"viability, T/C","second compound 0.0316 µM, first compound 3.16 µM",34.2%
same,"viability, T/C","second compound 0.0316 µM, first compound 10 µM",32.1%
same,"viability, T/C","second compound 0.1 µM, first compound 0.0316 µM",78.9%
same,"viability, T/C","second compound 0.1 µM, first compound 0.1 µM",73.3%
same,"viability, T/C","second compound 0.1 µM, first compound 0.316 µM",60.5%
same,"viability, T/C","second compound 0.1 µM, first compound 1 µM",45%
same,"viability, T/C","second compound 0.1 µM, first compound 3.16 µM",40.1%
same,"viability, T/C","second compound 0.1 µM, first compound 10 µM",30.6%
same,"viability, T/C","second compound 0.316 µM, first compound 0.0316 µM",89.7%
same,"viability, T/C","second compound 0.316 µM, first compound 0.1 µM",63%
same,"viability, T/C","second compound 0.316 µM, first compound 0.316 µM",43.2%
same,"viability, T/C","second compound 0.316 µM, first compound 1 µM",44.8%
same,"viability, T/C","second compound 0.316 µM, first compound 3.16 µM",33.5%
same,"viability, T/C","second compound 0.316 µM, first compound 10 µM",32%
same,"viability, T/C","second compound 1 µM, first compound 0.0316 µM",79.2%
same,"viability, T/C","second compound 1 µM, first compound 0.1 µM",68.2%
same,"viability, T/C","second compound 1 µM, first compound 0.316 µM",53.5%
same,"viability, T/C","second compound 1 µM, first compound 1 µM",48.4%
same,"viability, T/C","second compound 1 µM, first compound 3.16 µM",38%
same,"viability, T/C","second compound 1 µM, first compound 10 µM",32.2%
CCc1c2c(nc3ccc(O)cc13)-c1cc3c(c(=O)n1C2)COC(=O)[C@]3(O)CC + CCn1c(-c2cc(N3CCN(C)CC3)cnc2C(C)OC)c2c3cc(ccc31)-c1csc(n1)CC(NC(=O)C1CC1C)C(=O)N1CCCC(N1)C(=O)OCC(C)(C)C2,IC50,second compound 0.000949 µM,< 0.949 nM
same,IC50,second compound 0.003 µM,< 0.949 nM
same,IC50,second compound 0.00949 µM,< 0.949 nM
same,IC50,second compound 0.03 µM,< 0.949 nM
same,IC50,second compound 0.0949 µM,< 0.949 nM
same,IC50,second compound 0.3 µM,< 0.949 nM
same,"viability, T/C","second compound 0.000949 µM, first compound 0.000949 µM",33.1%
same,"viability, T/C","second compound 0.000949 µM, first compound 0.003 µM",21.3%
same,"viability, T/C","second compound 0.000949 µM, first compound 0.00949 µM",10.2%
same,"viability, T/C","second compound 0.000949 µM, first compound 0.03 µM",5.07%
same,"viability, T/C","second compound 0.000949 µM, first compound 0.0949 µM",2.53%
same,"viability, T/C","second compound 0.000949 µM, first compound 0.3 µM",1.79%
same,"viability, T/C","second compound 0.003 µM, first compound 0.000949 µM",20.8%
same,"viability, T/C","second compound 0.003 µM, first compound 0.003 µM",7.71%
same,"viability, T/C","second compound 0.003 µM, first compound 0.00949 µM",4.82%
same,"viability, T/C","second compound 0.003 µM, first compound 0.03 µM",3.05%
same,"viability, T/C","second compound 0.003 µM, first compound 0.0949 µM",2.03%
same,"viability, T/C","second compound 0.003 µM, first compound 0.3 µM",1.92%
same,"viability, T/C","second compound 0.00949 µM, first compound 0.000949 µM",4.34%
same,"viability, T/C","second compound 0.00949 µM, first compound 0.003 µM",3.24%
same,"viability, T/C","second compound 0.00949 µM, first compound 0.00949 µM",2.6%
same,"viability, T/C","second compound 0.00949 µM, first compound 0.03 µM",2.11%
same,"viability, T/C","second compound 0.00949 µM, first compound 0.0949 µM",2.15%
same,"viability, T/C","second compound 0.00949 µM, first compound 0.3 µM",1.25%
same,"viability, T/C","second compound 0.03 µM, first compound 0.000949 µM",2.43%
same,"viability, T/C","second compound 0.03 µM, first compound 0.003 µM",2.09%
same,"viability, T/C","second compound 0.03 µM, first compound 0.00949 µM",2.04%
same,"viability, T/C","second compound 0.03 µM, first compound 0.03 µM",2.06%
same,"viability, T/C","second compound 0.03 µM, first compound 0.0949 µM",1.98%
same,"viability, T/C","second compound 0.03 µM, first compound 0.3 µM",1.26%
same,"viability, T/C","second compound 0.0949 µM, first compound 0.000949 µM",1.98%
same,"viability, T/C","second compound 0.0949 µM, first compound 0.003 µM",1.94%
same,"viability, T/C","second compound 0.0949 µM, first compound 0.00949 µM",1.8%
same,"viability, T/C","second compound 0.0949 µM, first compound 0.03 µM",1.65%
same,"viability, T/C","second compound 0.0949 µM, first compound 0.0949 µM",1.4%
same,"viability, T/C","second compound 0.0949 µM, first compound 0.3 µM",0.95%
same,"viability, T/C","second compound 0.3 µM, first compound 0.000949 µM",1.39%
same,"viability, T/C","second compound 0.3 µM, first compound 0.003 µM",1.76%
same,"viability, T/C","second compound 0.3 µM, first compound 0.00949 µM",1.84%
same,"viability, T/C","second compound 0.3 µM, first compound 0.03 µM",1.68%
same,"viability, T/C","second compound 0.3 µM, first compound 0.0949 µM",1.29%
same,"viability, T/C","second compound 0.3 µM, first compound 0.3 µM",0.71%
